Source: US20230150974A1 (Foghorn Therapeutics Inc., priority 2020, published 2023)

How the values were obtained:
HiBit-BRG1 = target: T1, HiBit-BRG1 (Homo sapiens, UniProt P51532); assay: HiBit-BRG1 cell-based degradation assay (Nano-Glo HiBiT Lytic Detection); settings: HeLa cells expressing HiBit-BRG1 and LgBit, 24 h
T1 construct: expressed in transfected cells
Procedure, shortened: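 Stable HeLa line co-expressing HiBit-BRG1 and LgBit, 5000 cells/well, treated 24 h in a tissue culture incubator. Lysed with Nano-Glo HiBiT lytic reagent, luminescence read. % degradation normalized to DMSO (high control) and 2 μM reference BRM/BRG1 degrader (low control).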

HiBiT-BRM = target: T2, HiBiT-BRM (Homo sapiens, UniProt P51531); assay: HiBiT-BRM cell-based degradation assay (Nano-Glo HiBiT Lytic Detection); settings: HeLa cells expressing HiBiT-BRM, 24 h
T2 construct: expressed in transfected cells
T2 sequence (P51531 whole entry): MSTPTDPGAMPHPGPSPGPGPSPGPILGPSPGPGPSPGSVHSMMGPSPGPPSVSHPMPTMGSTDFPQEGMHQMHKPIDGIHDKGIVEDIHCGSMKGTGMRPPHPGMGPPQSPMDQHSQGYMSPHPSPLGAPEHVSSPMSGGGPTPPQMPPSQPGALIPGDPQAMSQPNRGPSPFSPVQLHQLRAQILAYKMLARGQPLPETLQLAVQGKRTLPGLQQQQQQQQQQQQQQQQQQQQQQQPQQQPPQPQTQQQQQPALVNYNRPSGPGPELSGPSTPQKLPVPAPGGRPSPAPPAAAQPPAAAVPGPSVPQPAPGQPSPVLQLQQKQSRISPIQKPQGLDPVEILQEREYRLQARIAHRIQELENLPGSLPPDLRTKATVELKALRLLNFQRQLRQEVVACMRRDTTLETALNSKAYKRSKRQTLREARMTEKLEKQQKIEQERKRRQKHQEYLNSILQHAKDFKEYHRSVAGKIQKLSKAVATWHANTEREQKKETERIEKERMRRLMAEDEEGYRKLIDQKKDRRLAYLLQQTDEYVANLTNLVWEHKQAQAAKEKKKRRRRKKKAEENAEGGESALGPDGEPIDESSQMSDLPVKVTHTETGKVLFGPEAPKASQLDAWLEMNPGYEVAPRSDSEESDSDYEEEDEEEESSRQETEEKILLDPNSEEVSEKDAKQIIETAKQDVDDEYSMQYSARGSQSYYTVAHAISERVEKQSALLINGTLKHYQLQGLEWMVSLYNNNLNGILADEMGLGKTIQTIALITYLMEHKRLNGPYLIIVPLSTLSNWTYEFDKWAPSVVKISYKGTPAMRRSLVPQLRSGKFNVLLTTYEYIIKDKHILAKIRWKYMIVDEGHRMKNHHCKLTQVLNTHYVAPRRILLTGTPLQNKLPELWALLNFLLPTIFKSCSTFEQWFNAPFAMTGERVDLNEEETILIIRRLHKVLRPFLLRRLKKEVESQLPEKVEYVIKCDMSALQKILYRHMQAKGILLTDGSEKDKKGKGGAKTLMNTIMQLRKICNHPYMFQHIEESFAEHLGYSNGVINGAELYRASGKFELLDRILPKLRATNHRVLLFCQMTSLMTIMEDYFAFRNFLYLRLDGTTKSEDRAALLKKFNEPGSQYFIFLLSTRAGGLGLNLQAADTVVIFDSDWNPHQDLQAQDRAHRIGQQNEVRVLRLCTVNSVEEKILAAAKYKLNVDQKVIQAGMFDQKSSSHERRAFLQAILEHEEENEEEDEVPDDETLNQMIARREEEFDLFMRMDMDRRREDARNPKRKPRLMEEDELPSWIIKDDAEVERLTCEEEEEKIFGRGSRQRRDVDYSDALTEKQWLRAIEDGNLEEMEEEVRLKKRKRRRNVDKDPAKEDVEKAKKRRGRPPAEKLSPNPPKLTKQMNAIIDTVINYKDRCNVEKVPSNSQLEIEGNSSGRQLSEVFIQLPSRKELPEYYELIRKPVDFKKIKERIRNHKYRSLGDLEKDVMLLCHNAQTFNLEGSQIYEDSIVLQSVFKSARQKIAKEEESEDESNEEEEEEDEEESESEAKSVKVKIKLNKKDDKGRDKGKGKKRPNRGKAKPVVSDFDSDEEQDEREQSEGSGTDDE
Procedure, shortened: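 HeLa cells stably expressing HiBiT-tagged BRM were treated for 24 h, then lysed with LgBiT-containing Nano-Glo reagent and luminescence read. % degradation scaled between DMSO (high control) and 2 μM reference BRM/BRG1 degrader (low control).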

T1 sequence (P51532 whole entry): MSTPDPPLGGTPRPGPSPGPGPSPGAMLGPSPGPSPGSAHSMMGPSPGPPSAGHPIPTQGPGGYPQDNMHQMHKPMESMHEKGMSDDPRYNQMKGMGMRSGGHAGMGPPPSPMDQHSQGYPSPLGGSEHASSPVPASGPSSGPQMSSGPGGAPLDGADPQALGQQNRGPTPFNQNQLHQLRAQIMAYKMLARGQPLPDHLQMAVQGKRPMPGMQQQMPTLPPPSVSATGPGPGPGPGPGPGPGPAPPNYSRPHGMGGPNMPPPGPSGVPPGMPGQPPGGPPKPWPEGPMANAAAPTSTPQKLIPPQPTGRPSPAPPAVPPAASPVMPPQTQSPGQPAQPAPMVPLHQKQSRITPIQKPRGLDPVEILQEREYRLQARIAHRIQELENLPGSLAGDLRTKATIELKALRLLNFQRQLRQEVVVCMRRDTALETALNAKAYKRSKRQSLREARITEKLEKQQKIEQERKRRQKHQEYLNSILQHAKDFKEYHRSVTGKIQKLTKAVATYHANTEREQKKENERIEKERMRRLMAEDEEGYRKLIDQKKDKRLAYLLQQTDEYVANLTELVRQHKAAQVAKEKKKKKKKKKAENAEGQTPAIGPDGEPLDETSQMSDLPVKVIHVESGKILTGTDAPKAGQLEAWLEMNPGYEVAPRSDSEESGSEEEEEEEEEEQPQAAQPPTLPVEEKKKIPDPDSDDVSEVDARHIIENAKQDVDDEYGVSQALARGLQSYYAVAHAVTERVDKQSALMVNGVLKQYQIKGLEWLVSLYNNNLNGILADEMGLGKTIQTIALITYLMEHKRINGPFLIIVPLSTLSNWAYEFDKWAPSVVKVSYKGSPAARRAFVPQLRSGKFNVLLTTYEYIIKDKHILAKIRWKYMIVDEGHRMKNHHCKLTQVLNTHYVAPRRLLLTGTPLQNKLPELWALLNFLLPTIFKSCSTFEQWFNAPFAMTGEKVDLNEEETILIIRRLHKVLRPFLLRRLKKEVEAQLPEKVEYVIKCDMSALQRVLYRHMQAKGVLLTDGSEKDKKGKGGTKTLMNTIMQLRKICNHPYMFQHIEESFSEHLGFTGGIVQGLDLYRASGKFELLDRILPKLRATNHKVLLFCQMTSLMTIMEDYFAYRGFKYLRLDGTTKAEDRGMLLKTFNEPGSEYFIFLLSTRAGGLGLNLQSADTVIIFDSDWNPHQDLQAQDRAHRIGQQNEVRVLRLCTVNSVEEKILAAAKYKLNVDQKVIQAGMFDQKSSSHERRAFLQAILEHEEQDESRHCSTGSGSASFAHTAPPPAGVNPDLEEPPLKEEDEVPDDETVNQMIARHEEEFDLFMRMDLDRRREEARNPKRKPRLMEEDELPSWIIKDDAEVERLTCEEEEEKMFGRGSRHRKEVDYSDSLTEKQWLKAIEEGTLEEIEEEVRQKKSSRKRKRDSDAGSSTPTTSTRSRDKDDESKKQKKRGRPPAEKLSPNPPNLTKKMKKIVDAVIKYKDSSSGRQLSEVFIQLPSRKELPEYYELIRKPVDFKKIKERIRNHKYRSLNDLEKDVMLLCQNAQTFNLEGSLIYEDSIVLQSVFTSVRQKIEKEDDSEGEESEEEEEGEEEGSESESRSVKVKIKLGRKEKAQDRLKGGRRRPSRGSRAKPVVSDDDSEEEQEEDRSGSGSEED

In the case of Cc1ncsc1-c1ccc([C@H](C)NC(=O)[C@@H]2C[C@@H](O)CN2C(=O)[C@@H](NC(=O)CN2CCC3(CCN(CCC(=O)NCc4ccc(CCOc5cc(-c6ccccc6O)nnc5N)cc4)CC3)CC2)C(C)(C)C)cc1 [Compound 267, (2S,4R)-1-((S)-2-(2-(9-(3-((4-(2-((3-amino-6-(2-hydroxyphenyl)pyridazin-4-yl)oxy)ethyl)benzyl)amino)-3-oxopropyl)-3,9-diazaspiro[5.5]undecan-3-yl)acetamido)-3,3-dimethylbutanoyl)-4-hydroxy-N-((S)-1-(4-(4-methylthiazol-5-yl)phenyl)ethyl)pyrrolidine-2-carboxamide], the DC50 (HiBit-BRG1; read-out: BRG1 HiBit Degradation IC50) is reported as greater than 1 µM, the Dmax (HiBit-BRG1; read-out: BRG1 HiBit Degradation Maximum (%)) is reported as less than 50% and the “BRM HiBit Degradation Maximum (%)” value (HiBiT-BRM) is reported as “A (“A” indicates maximum degradation ≥75%)”. The DC50 (HiBiT-BRM; read-out: BRM HiBit Degradation IC50) was greater than 1 µM.
